{
  "source": "ChEMBL document CHEMBL1833935",
  "about": "“Metal-free cleavage efficiency toward DNA by a novel PNA analog-bridged macrocyclic polyamine” (Bioorg Med Chem Lett, 2011)",
  "type_in_all_cases": "nucleic-acid assay",
  "key": {"Nucleic Acid [1]": {"system": "Nucleic Acid", "experiment": "Induction of Escherichia coli pUC19 DNA cleavage assessed as conversion of supercoiled plasmid DNA to nicked circular DNA at 20 uM after 48 hrs by agarose gel electrophoresis"}, "Nucleic Acid [2]": {"system": "Nucleic Acid", "experiment": "Induction of Escherichia coli pUC19 DNA cleavage assessed as conversion of supercoiled plasmid DNA to nicked circular DNA at 10 uM after 48 hrs by agarose gel electrophoresis"}, "Nucleic Acid [3]": {"system": "Nucleic Acid", "experiment": "Binding affinity to calf thymus DNA assessed as change in melting temperature at compound/DNA ratio of 1:5", "conditions": "Bos taurus"}, "Nucleic Acid [4]": {"system": "Nucleic Acid", "experiment": "Binding affinity to calf thymus DNA at compound/DNA ratio 2:5", "conditions": "Bos taurus"}, "Nucleic Acid [5]": {"system": "Nucleic Acid", "experiment": "Binding affinity to calf thymus DNA assessed as change in melting temperature at compound/DNA ratio of 2:5", "conditions": "Bos taurus"}, "Nucleic Acid [6]": {"system": "Nucleic Acid", "experiment": "Induction of Escherichia coli pUC19 DNA cleavage assessed as conversion of supercoiled plasmid DNA to nicked circular DNA at 10 uM after 48 hrs by agarose gel electrophoresis in presence of 1 mM EDTA"}, "Nucleic Acid [7]": {"system": "Nucleic Acid", "experiment": "Induction of Escherichia coli pUC19 DNA cleavage assessed as conversion of supercoiled plasmid DNA to linear DNA at 10 uM after 48 hrs by agarose gel electrophoresis"}, "Nucleic Acid [8]": {"system": "Nucleic Acid", "experiment": "Induction of supercoiled Escherichia coli pUC19 DNA cleavage in HEPES buffer at pH 7.0 after 48 hrs by agarose gel electrophoresis in presence of 0.1 M DSMO"}, "Nucleic Acid [9]": {"system": "Nucleic Acid", "experiment": "Induction of supercoiled Escherichia coli pUC19 DNA cleavage in HEPES buffer at pH 7.0 after 48 hrs by agarose gel electrophoresis in presence of 0.1 M NaN3"}, "Nucleic Acid [10]": {"system": "Nucleic Acid", "experiment": "Induction of supercoiled Escherichia coli pUC19 DNA cleavage in HEPES buffer at pH 7.0 after 48 hrs by agarose gel electrophoresis in presence of 0.1 M potassium iodide"}, "Nucleic Acid [11]": {"system": "Nucleic Acid", "experiment": "Induction of supercoiled Escherichia coli pUC19 DNA cleavage in HEPES buffer at pH 7.0 after 48 hrs by agarose gel electrophoresis in presence of 0.1 M tert-butyl alcohol"}, "Nucleic Acid [12]": {"system": "Nucleic Acid", "experiment": "Induction of [5'-32P]-end labeled single stranded 24 mer DNA cleavage assessed as formation of ladder of DNA fragment at 10 to 100 uM after 48 hrs at pH 7.0 and 37 degC by agarose gel electrophoresis-based phosphorimager analysis"}, "Nucleic Acid [13]": {"system": "Nucleic Acid", "experiment": "Induction of [5'-32P]-end labeled single stranded 26 mer DNA cleavage assessed as formation of ladder of DNA fragments in HEPES buffer at 10 to 100 uM after 48 hrs at pH 7.0 and 37 degC by agarose gel electrophoresis-based phosphorimager analysis"}, "Nucleic Acid [14]": {"system": "Nucleic Acid", "experiment": "Induction of [5'-32P]-end labeled single stranded 24 mer DNA cleavage assessed as formation of ladder of DNA fragment at 10 to 100 uM after 48 hrs at pH 7.0 and < = 25 degC by agarose gel electrophoresis-based phosphorimager analysis"}, "Nucleic Acid [15]": {"system": "Nucleic Acid", "experiment": "Induction of [5'-32P]-end labeled single stranded 26 mer DNA cleavage assessed as formation of ladder of DNA fragment at 10 to 100 uM after 48 hrs at pH 7.0 and < = 25 degC by agarose gel electrophoresis-based phosphorimager analysis"}},
  "note": "Active and inactive are the calls of the source. No cut-off for these calls is given here. *1 amine or outer side, *2 acyl side, *3 side chain or, on linkers, in order; H or OH if unused. Where a SMILES comes first, the peptide text is derived from it. Bridges are numbered along the chain shown (N, C = ends). Roman numbers before positions name the chains, in order. The star is where a group is joined. Hexamethylenediamine = C(CCCN[*:2])CCN[*:1]; Cyclenylacetyl = O=C(CN1CCNCCNCCNCC1)*; X1 = O=c1[nH]cc(C*)c(=O)[nH]1",
  "data": [
    {"smiles": "C1CNCCNCCNCCN1", "values": [
      {"measurement": "Activity", "setting": "Nucleic Acid [1]", "value": "inactive"}
    ]},
    {"smiles": "CC(C)(C)OC(=O)N1CCN(CC(=O)NCC(=O)N[C@@H](CSCc2c[nH]c(=O)[nH]c2=O)C(=O)NCC(=O)N[C@@H](CSCc2c[nH]c(=O)[nH]c2=O)C(=O)NCCCCCCNC(=O)[C@H](CSCc2c[nH]c(=O)[nH]c2=O)NC(=O)CNC(=O)[C@H](CSCc2c[nH]c(=O)[nH]c2=O)NC(=O)CNC(=O)CN2CCN(C(=O)OC(C)(C)C)CCN(C(=O)OC(C)(C)C)CCN(C(=O)OC(C)(C)C)CC2)CCN(C(=O)OC(C)(C)C)CCN(C(=O)OC(C)(C)C)CC1", "values": [
      {"measurement": "Activity", "setting": "Nucleic Acid [2]", "value": "Active"}
    ]},
    {"smiles": "COC(=O)[C@H](CSCc1c[nH]c(=O)[nH]c1=O)NC(=O)CNC(=O)[C@H](CSCc1c[nH]c(=O)[nH]c1=O)NC(=O)CNC(=O)CN1CCNCCNCCNCC1", "note": "(Cyclenylacetyl-GC(X1)GC(X1)-OMe)", "values": [
      {"measurement": "ΔTm", "setting": "Nucleic Acid [3]", "value": 1.1, "unit": "°C"},
      {"measurement": "Activity", "setting": "Nucleic Acid [4]", "value": "Active"},
      {"measurement": "Activity", "setting": "Nucleic Acid [2]", "value": "Active"},
      {"measurement": "Activity", "setting": "Nucleic Acid [1]", "value": "inactive"}
    ]},
    {"smiles": "O=C(CN1CCNCCNCCNCC1)NCC(=O)N[C@@H](CSCc1c[nH]c(=O)[nH]c1=O)C(=O)NCC(=O)N[C@@H](CSCc1c[nH]c(=O)[nH]c1=O)C(=O)NCCCCCCNC(=O)[C@H](CSCc1c[nH]c(=O)[nH]c1=O)NC(=O)CNC(=O)[C@H](CSCc1c[nH]c(=O)[nH]c1=O)NC(=O)CNC(=O)CN1CCNCCNCCNCC1", "note": "(I: Cyclenylacetyl-GC(X1)GC(X1) / II: Cyclenylacetyl-GC(X1)GC(X1); linker I:C-II:C via Hexamethylenediamine)", "values": [
      {"measurement": "ΔTm", "setting": "Nucleic Acid [3]", "value": 5.9, "unit": "°C"},
      {"measurement": "ΔTm", "setting": "Nucleic Acid [5]", "value": 2.3, "unit": "°C"},
      {"measurement": "Activity", "setting": "Nucleic Acid [2]", "value": "Active"},
      {"measurement": "Activity", "setting": "Nucleic Acid [6]", "value": "Active"},
      {"measurement": "Activity", "setting": "Nucleic Acid [7]", "value": "Active"},
      {"measurement": "Activity", "setting": "Nucleic Acid [8]", "value": "inactive"},
      {"measurement": "Activity", "setting": "Nucleic Acid [9]", "value": "inactive"},
      {"measurement": "Activity", "setting": "Nucleic Acid [10]", "value": "Active"},
      {"measurement": "Activity", "setting": "Nucleic Acid [11]", "value": "Active"},
      {"measurement": "Activity", "setting": "Nucleic Acid [12]", "value": "Active"},
      {"measurement": "Activity", "setting": "Nucleic Acid [13]", "value": "Active"},
      {"measurement": "Activity", "setting": "Nucleic Acid [14]", "value": "inactive"},
      {"measurement": "Activity", "setting": "Nucleic Acid [15]", "value": "inactive"}
    ]}
  ]
}
